Laboratory results as given in US20050009849A1, “Pyridopyrimidine kinase inhibitors” (priority 2003, published 2005).
Like-named read-outs stand apart in the source and are kept apart here.

Tests used:
[1] = test system: CML cell lines; assay: cells; details: read-out: IC50 on CML cell lines
[2] = test system: R10 Negative and R10 Positive cells (M07e/p210bcr-abl); assay: cells; details: M-07e
[3] = test system: CML progenitors; assay: cells; format: cell-based, human; details: for inhibition at 0.01 µM: read-out: average inhibition of CML GM progenitors, 10 nM
Text: (§1) In many experiments the CD34+ blasts were further depleted of GM, megakaryocyte or lymphocyte progenitors (CD 13, 14, 15, 46, 61, 19-) or of erythroid and megakaryocyte progenitors (CD36-, Glycophorin-, CD41/61-) in order to study the drug's effects on purer erythroid or GM progenitors.

[4] = test system: R10-Negative cells; assay: CFSE cell division and viability; format: cell-based
Method: Using the vital stain, CFSE, it is possible to determine the concentrations of different inhibitors required to arrest cell division and also to quantitate the number of quiescent cells. […] However with exposure to ST1571 at the same concentration many cells continue dividing and 80% are still viable after 6 days; even at 100 nM ST1571, some cells are able to continue dividing and the viability is still 24% at 6 days.

[5] = test system: normal progenitors; assay: Inhibition of normal progenitors; format: cell-based, human
Text: as §1

[6] = Solubility; format: physicochemical
[7] = test system: human glioblastoma, sarcoma, neuroblastoma and Ewing's sarcoma cell lines; assay: cells; details: read-out: average IC50s
[8] = Serial plasma levels in mice (bioavailability); format: in vivo; details: mouse, oral, read-out: bioavailability after oral administration relative to intravenous or intraperitoneal injection
Text: Toxicological and pharmacological studies in mice and dogs include determining the maximum tolerated doses, measuring plasma and tissue levels and bioavailability after oral and parenteral administration, and developing optimal formulations for both oral and parenteral use. […] One way to administer the drug is by continuous infusion, and we are currently exploring the use of small osmotic pumps that can be inserted into the peritoneal cavities of mice that will deliver a constant concentration continuously. All animal studies are performed under the standard guidelines. Initial dose escalation studies are performed via oral delivery on control mice in order to determine the maximum tolerated dose (MTD). Studies proceed at or below half-MTD. The inherent kinetics for disease engraftment of each model system and the appropriate windows for duration of drug administration are then determined. In the human mesothelioma xenograft model, tumor formation is evaluated, allowing for the establishment of 1-2 mm^3 tumors before drug administration. Survival data are presented using the Kaplan-Meyer method. We will compare the administration of the inhibitors by i.v. or i.p. bolus injection with continuous i.p. infusion using an osmotic pump.

[9] = Pharmacokinetics in B6D2F1 mice; format: in vivo; details: for Cmax / MRT / bioavailability: B6D2F1, mouse, plasma, 1 mg; for Cmax / MRT / AUG (uM × Min) IV / AUG (uM × Min) PO: one milligram; for bioavailability: po vs iv
Method: Solvents. […] SKI-DV281 was dissolved/suspended in a solution of 20% Cremophor +20% ethanol in saline.
Animal Experiments. For each compound, nineteen B6D2F1 mice were used. One mouse was used as control and the rest was divided into two groups with 9 mice per group. One milligram ([…] at 17 mg/ml) of compound was administered to the mice through oral gavage in one group and intravenously in the other group. At each time point (total of 9 time points) after the drug administration, one mouse from each group was sacrificed and approximately 400 μl of blood was collected into heparinized tubes through cardiac puncture. The plasma samples were analyzed as described below.
Analytical. The analysis of drug level in plasma is performed with an automated LC-MS system, which consists of a Prospekt-2 automated sample processor, interfaced with an Agilent 1100 LC-MS. The Prospekt-2 consists of two parts, high pressure eluter (HPE) and automated cartridge exchanger (ACE). The Agilent unit consists of a binary pump, an autosampler, the instrument will perform extraction and analysis automatically. The ACE picks up a new C, 18 solid phase […] (SPE) cartridge and places it into the clamp. The HPE activates the cartridge by passing acetonitrile and water through the cartridge. The autosampler picks up a predetermined amount of the plasma and the HPE flushes the plasma onto the SPE cartridge, washes it with water, then the sample is analyzed. When the cycle is completed, the ACE will fetch a new cartridge and cycle is repeated.
Data analysis and result. The pharmacokinetic curve for each compound was plotted intravenous versus oral (iv vs. po) (see FIGS. 27-29). Data analysis was performed with WinNonlin v.4 (Pharsight) using non-compartmental model.

[10] = molecular target: T1, Ba/F3 cells transformed with Bcr-Abl wild-type (Homo sapiens, UniProt P00519); assay: MTS proliferation, Ba/F3 Bcr-Abl wild-type; format: cell-based; details: for GI50: read-out: IC50, growth inhibition
T1 construct: other: von Bubnoff et al. 2002; other: 48 hours of culture; fused on or other part: P11274 (Breakpoint cluster region protein)
Method: (§2) Presence of single point mutations was verified by sequencing. […] Parental cells were cultured in presence of 2 ng/mL interleukin-3 (IL-3, R&D, Wiesbaden, Germany). IL-3 independent Ba/F3 cells expressing wild-type and mutant BCR-ABL were generated by electroporation and transformed upon withdrawal of IL-3. Expression of Bcr-Abl was confirmed by western blot and flow-cytometric analysis.
(§3) Proliferation was measured using a MTS tetrazolium-based method by absorption of formazam at 490 nm (CellTiter 96, Promega, Madison, Wis., USA). Measures were taken as triplicates after 24 and 48 hours of culture without and in the presence of inhibitor at the indicated concentrations.

[11] = test system: Ba/F3 cells expressing P loop mutant Y253H; assay: MTS proliferation, Ba/F3 Bcr-Abl Y253H; format: cell-based
Method: as §2, §3

[12] = test system: Ba/F3 cells expressing P loop mutant E255V; assay: MTS proliferation, Ba/F3 Bcr-Abl E255V; format: cell-based
Method: as §2, §3

[13] = test system: Ba/F3 cells expressing P loop mutant E255K; assay: MTS proliferation, Ba/F3 Bcr-Abl E255K; format: cell-based
Method: as §2, §3

[14] = molecular target: T2, Bcr-Abl wild-type (Homo sapiens, UniProt P00519); assay: Bcr-Abl tyrosine phosphorylation in Ba/F3 cells, wild-type; format: cell-based
T2 construct: expressed in transfected cells; host or cells: Ba/F3 cells (electroporation, IL-3 independent); the other entry of the earlier key: BCR (P11274, Breakpoint cluster region protein)

[15] = molecular target: T3, Bcr-Abl/T3151 (Homo sapiens, UniProt P00519, T315I); assay: Bcr-Abl tyrosine phosphorylation in Ba/F3 cells, T3151; format: cell-based
T3 construct: expressed in transfected cells; host or cells: Ba/F3 cells; the other entry of the earlier key: BCR (P11274, Breakpoint cluster region protein)

[16] = molecular target: Bcr-Abl E255V (Homo sapiens, UniProt P00519, E255V)
Method: (§4) Ba/F3 cells were cultured for 2,5 hours without and in presence of inhibitor at the indicated concentrations. Cell lysis, SDS-PAGE and immunoblotting were done as described previously.^42 Anti-Abl antibodies were obtained from Pharmingen (8E9) (BD Biosciences, Heidelberg, Germany) and Calbiochem-Novabiochem (Ab3) (Schwalbach, Germany). Antibodies to phosphotyrosine were purchased from Upstate Biotechnology (4G10) (Biozol, Eching, Germany) and Transduction (PY20) (BD Biosciences, Heidelberg, Germany). Bands were visualized using the ECL system (Amersham, Braunschweig, Germany).

[17] = molecular target: Bcr-Abl Y253H (Homo sapiens, UniProt P00519, Y253H)
Method: as §4

[18] = molecular target: Bcr-Abl H396P (Homo sapiens, UniProt P00519, H396P)
Method: as §4

[19] = molecular target: Bcr-Abl E255K (Homo sapiens, UniProt P00519, E255K)
Method: as §4

[20] = test system: parental Ba/F3 cells; assay: MTS proliferation, parental Ba/F3 cells; format: cell-based; details: read-out: IC50, unspecific growth inhibition
Text: […]. Lancet, 359: 487-491, 2002; incorporated herein by reference). Briefly, RT-PCR fragments derived from clinical samples were cloned into pBlueskript SK+ p185^bcr-abl (Stratagene, Amsterdam, NL), and subcloned into pcDNA3.1/Zeo (+) (Invitrogen, Leek, NL) and Mig EGFP (Bai, R. Y., Ouyang, T., Miething, C., Morris, S. W., Peschel, C., and Duyster, J. Nucleophosmin-anaplastic lymphoma kinase associated with anaplastic large-cell lymphoma activates the phosphatidylinositol 3-kinase/Akt antiapoptotic signaling pathway. Blood, 96: 4319-4327, 2000; incorporated herein by reference). Presence of single point mutations was verified by sequencing. Ba/F3 cells were maintained in RPMI 1640 growth media (Gibco, Karlsruhe, Germany) containing 10% fetal calf serum (Gibco) and P/S (Gibco) (200 U penicillin per mL and 200 μg streptomycin per mL). Parental cells were cultured in presence of 2 ng/mL interleukin-3 (IL-3, R&D, Wiesbaden, Germany). IL-3 independent Ba/F3 cells expressing wild-type and mutant BCR-ABL were generated by electroporation and transformed upon withdrawal of IL-3. Expression of Bcr-Abl was confirmed by western blot and flow-cytometric analysis.
Proliferation was measured using a MTS tetrazolium-based method by absorption of formazam at 490 nm (CellTiter 96, Promega, Madison, Wis., USA). […]

[21] = molecular target: T4, Ba/F3 cells transformed with Bcr-Abl wild-type (Homo sapiens, UniProt P00519, cells depend on it, form not given); assay: MTS proliferation, Ba/F3 Bcr-Abl wild-type; format: cell-based
T4 construct: fused on or other part: P11274 (Breakpoint cluster region protein)
Method: as §2, §3

[22] = intravenous, read-out: Cmax (uM) IV
[23] = intravenous, read-out: MRT (Min) IV (converted)
[24] = oral gavage, read-out: Cmax (uM) PO
[25] = oral gavage, read-out: MRT (Min) PO (converted)

CSc1cccc(Nc2ncc3cc(-c4c(Cl)cccc4Cl)c(=O)n(C)c3n2)c1 [PD173955]
IC50 [1]: 2 to 35 nM
IC50 [2]: ~2 nM
CML erythroid progenitors' exaggerated response to EPO alone or KL alone ([3]; 10 nM): almost completely blocked
IC50 ([3]; Homo sapiens, read-out: IC50 for CML progenitors, varies in different patients): 1.5 to 7.5 nM
inhibition at 0.01 µM ([3]; Homo sapiens, G- + GM + KL): 34%
inhibition at 0.01 µM ([3]; Homo sapiens, G- + GM-CSF at 0.03 ng/ml): 68%
inhibition at 0.01 µM ([3]; Homo sapiens, G- + GM-CSF at 10 ng/ml): 61%
inhibition at 0.01 µM ([3]; Homo sapiens, KL alone at 50-100 ng/ml): 83%
IC50 ([3]; read-out: IC50 for CML progenitors, varies in different patients): ~2 nM
cell division (CFSE) ([4]; 25 nM, after one division by Day 2): subsequent divisions are blocked
effect on normal erythroid progenitors ([5]; 10 nM): unaffected
inhibition of normal progenitors ([5]; 10 nM, any of the cytokines singly or in combination): no inhibition
IC50 ([5]; Homo sapiens): 350 nM
solubility [6]: quite insoluble
IC50 [7]: 400 to 1000 nM

Cc1ccc(NC(=O)c2ccc(CN3CCN(C)CC3)cc2)cc1Nc1nccc(-c2cccnc2)n1 [STI-571]
viability at […] ([4]; 144 h, 25 nM, after 6 days): 80%
viability at 0.1 µM ([4]; 144 h, 100 nM, at 6 days): 24%

Cn1c(=O)c(-c2c(Cl)cccc2Cl)cc2cnc(Nc3cccc(CO)c3)nc21 [PD166326, 6-(2,6-Dichlorophenyl)-2-(3-hydroxymethylphenylamino)-8-methyl-8H-pyrido[2,3-d]pyrimidin-7-one]
bioavailability [8]: ~8%
Cmax [9, 22]: 90 µM
MRT [9, 23]: 103 min
Cmax [9, 24]: 3.2 µM
MRT [9, 25]: 126 min
bioavailability [9]: 6.6%
AUG (uM × Min) IV ([9]; intravenous): 2395 µM·min
AUG (uM × Min) PO ([9]; oral gavage): 158 µM·min

Cn1c(=O)c(-c2c(Cl)cccc2Cl)cc2cnc(Nc3ccc(NC(=O)CCCCCNC(=O)CCCC[C@@H]4SC[C@@H]5NC(=O)N[C@@H]54)cc3)nc21 [SKI DV 1-10 biotinyl, 2-{4-[6-(Biotinamido)hexanamido]phenylamino}-6-(2,6-dichlorophenyl)-8-methyl-8H-pyrido[2,3-d]pyrimidin-7-one]
IC95, growth inhibition ([10]; 48 hours of culture): 515 nM
GI50 ([10]; 48 hours of culture): 115 nM

Cn1c(=O)c(-c2c(Cl)cccc2Cl)cc2cnc(Nc3cccc(N)c3)nc21 [SKI DV 2-43, 2-(3-Aminophenylamino)-6-(2,6-dichlorophenyl)-8-methyl-8H-pyrido[2,3-d]pyrimidin-7-one]
cellular IC95 [11]: 125 nM
cellular IC95 [12]: 200 nM
cellular IC95 [13]: 110 nM
Cmax [9, 22]: 224 µM
MRT [9, 23]: 174 min
Cmax [9, 24]: 10 µM
MRT [9, 25]: 294 min
bioavailability [9]: 4%
AUG (uM × Min) IV ([9]; intravenous): 20319 µM·min
AUG (uM × Min) PO ([9]; oral gavage): 826 µM·min
IC95, growth inhibition [10]: 40 nM
GI50 ([10]; ba/f3 cells transformed with bcr-abl wild-type): 9 nM

Cc1cc(Nc2ncc3cc(-c4c(Cl)cccc4Cl)c(=O)n(C)c3n2)ccc1F [PD180970]
concentration of complete disappearance of phosphotyrosine Bcr-Abl [14]: 250 nM
activity (autophosphorylation) of Bcr-Abl/T3151 [15]: did not impair
concentration of complete disappearance of phosphotyrosine Bcr-Abl [16]: 2 µM
concentration of complete disappearance of phosphotyrosine Bcr-Abl [17]: 2 µM
concentration of complete disappearance of phosphotyrosine Bcr-Abl [18]: 250 nM
concentration of complete disappearance of phosphotyrosine Bcr-Abl [19]: 1 µM
cellular IC95 [11]: 770 nM
cellular IC95 [12]: 935 nM
IC50 [20]: 830 nM
fold higher concentrations than the most active compounds [21]: 5 fold
